According to patent US8137700B2, “Main chain acid-degradable polymers for the delivery of bioactive materials” (U.S. Department of Energy, priority 2006, dated 2012):

Tested on: LacZ B3Z hybridoma
Test: LacZ MHC Class I antigen presentation assay
Type: cell-based
Procedure: In one embodiment, particles prepared from these acid degradable epolymer backbones are designed to release their bioactive material payload into the cytoplasm of cells upon lysosomal destabilization. Higher loading capacity of the particles may also lead to greater antigen presentation of the encapsulated bioactive material. In the antigen presentation assay described by Sanderson, S.; Shastri, N. in Inter. Immun. 1994, 6, 369-376, the β-galactosidase activity of B3Z T cells is measured. Antigen presenting cells display the peptide having the sequence, […] (SEQ ID NO: 8), upon phagocytosis of ovalbumin. These cells are engineered to transcribe β-galactosidase when in the presence of antigen presenting cells displaying the […] peptide (SEQ ID NO: 8). β-galactosidase then liberates chlorophenol red from the chlorophenol red βgalactoside that is present in solution. Absorbance of chlorophenol red is measured by UV absorbance at 595 nm. Therefore this assay can be used as a measurement of the amount of bioactive material delivered into the cytoplasm of cells by the microgel particles of the invention by measuring the amount of liberated chlorophenol red by UV absorbance at 595 nm.
The LacZ MHC Class I antigen presentation assay, as described by the antigen Sanderson, S.; Shastri, N. in Inter. Immun. 1994, 6, 369-376, is performed with degradable polymer particles made according to Example 7 with the degradable polymers in Example 1 and 3 to test their ability to deliver proteins into APCs for Class I antigen presentation. This experiment uses the LacZ B3Z hybridoma, which is a CTL that recognizes the peptide sequence, […] (SEQ ID NO: 8), from ovalbumin, complexed with the MHC Class I molecule H-2 K^b. This hybridoma produces P-galactosidase after encountering APCs that present […] as a Class I antigen, thus allowing Class I antigen presentation to be quantified by measuring β-galactosidase activity.
A maximum absorbance of 0.25 is observed with the […] peptide (SEQ ID NO: 8), which results in 100% T-cell activation. At about 0.4 mg of particle/mL, degradable particles made as in Examples 1, should show an absorbance close to that of 0.25 at which 100% T-cell activation occurs.

With “free ovalbumin: free ovalbumin protein, comparator” the “U.V. absorbance resulting from activation” value (1 mg/ml of free ovalbumin) was 0.037 and the “activation of CTLs by APCs” value (APCs incubated with the substance) was “not able to activate CTLs”.

SIINFEKL gave a T-cell activation (at maximum absorbance) of 100% and a maximum absorbance (chlorophenol red, 595 nm) of 0.25.
